{
  "source": "paper PMC7173930",
  "about": "“EAT-18 is an essential auxiliary protein interacting with the non-alpha nAChR subunit EAT-2 to form a functional receptor” (PLoS Pathogens, 2020)",
  "key": {"[1]": {"biological_target": "T1, Cel-EAT-2 and Cel-EAT-18c nAChR (Caenorhabditis elegans, UniProt Q9U298)", "T1 sequence (Q9U298 22-474)": "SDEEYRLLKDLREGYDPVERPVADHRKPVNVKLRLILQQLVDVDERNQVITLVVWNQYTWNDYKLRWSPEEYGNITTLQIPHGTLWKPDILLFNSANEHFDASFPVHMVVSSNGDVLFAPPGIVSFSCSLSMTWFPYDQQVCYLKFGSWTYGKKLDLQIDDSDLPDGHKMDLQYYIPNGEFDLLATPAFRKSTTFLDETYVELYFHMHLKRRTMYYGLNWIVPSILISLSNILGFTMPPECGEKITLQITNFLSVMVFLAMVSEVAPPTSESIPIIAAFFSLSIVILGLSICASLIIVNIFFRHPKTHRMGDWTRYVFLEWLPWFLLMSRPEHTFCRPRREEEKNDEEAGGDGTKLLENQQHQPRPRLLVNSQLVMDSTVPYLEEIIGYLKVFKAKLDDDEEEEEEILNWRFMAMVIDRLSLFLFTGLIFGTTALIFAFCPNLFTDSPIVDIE", "assay": "Two-electrode voltage-clamp of Cel-EAT-2 + Cel-EAT-18c nAChR expressed in Xenopus oocytes", "type": "cell-based"}, "[2]": {"test_system": "nAChRs expressed in the pharynx of A. suum", "assay": "tissue or blood", "type": "cell-based", "description": "A. suum pharyngeal dissections and electrophysiology recordings were adapted from Martin [49]. Briefly, pharynx was dissected out from the head region of the worm and mounted on Sylgard (Sigma-Aldrich Inc., USA)—lined in a double jacketed bath chamber maintained at 28°C. The muscle layer surrounding the anterior 3rd of the pharynx was preserved for anchoring. The intestine attached to the posterior end of the pharynx was used for stretching and pinning down. The preparation was continuously perfused with calcium-free Ascaris Perienteric Fluid-Ringer (calcium-free APF-Ringer) composition (mM): NaCl 23, Na-acetate 110, KCl 24, MgCl2 11, glucose 11, and HEPES 5; NaOH or acetic acid was added to adjust the pH to 7.6. […] The rate of localized perfusion was 3.5–4 ml min^−1 through a 20-gauge needle, which was placed directly above the recording region of the pharynx. […] We used 3 M potassium acetate in our micropipettes to get the final resistances of 4–7 MΩ for the voltage sensing and 0.5–1 MΩ for the current injecting electrode for current-clamp recordings. The current-injecting electrode injected hyperpolarizing step currents of −1000 nA for 500 ms at 0.3 Hz.\nWe constructed the sigmoidal concentration-response plots by fitting the data by nonlinear regression to determine the pEC50 and the maximal response (Rmax). Extra sum of squares F-test was used to test statistical differences between pEC50, slope, and maximal response. The significance levels were set to P<0.05.\nIn applications containing arecoline and pilocarpine, we used mecamylamine, a nAChR antagonist (30µM) to inhibit nAChRs and to allow only mAChR activation."}, "[3]": {"biological_target": "Asu-EAT-2 nAChR (Ascaris suum, UniProt F1L9Y6)", "sequence (F1L9Y6 entry or part of it)": "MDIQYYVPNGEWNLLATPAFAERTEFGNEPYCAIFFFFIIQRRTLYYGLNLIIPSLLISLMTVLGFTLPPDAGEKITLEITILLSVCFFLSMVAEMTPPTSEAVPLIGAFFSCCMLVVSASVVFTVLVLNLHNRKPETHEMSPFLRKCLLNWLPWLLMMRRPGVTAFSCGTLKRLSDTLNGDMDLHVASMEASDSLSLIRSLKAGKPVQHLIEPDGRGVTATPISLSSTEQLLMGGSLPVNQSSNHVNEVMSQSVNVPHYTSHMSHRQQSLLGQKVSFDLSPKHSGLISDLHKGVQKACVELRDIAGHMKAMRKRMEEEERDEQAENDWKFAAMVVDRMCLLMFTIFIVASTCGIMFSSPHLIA", "sequence (F1L1D9 entry or part of it, further chain)": "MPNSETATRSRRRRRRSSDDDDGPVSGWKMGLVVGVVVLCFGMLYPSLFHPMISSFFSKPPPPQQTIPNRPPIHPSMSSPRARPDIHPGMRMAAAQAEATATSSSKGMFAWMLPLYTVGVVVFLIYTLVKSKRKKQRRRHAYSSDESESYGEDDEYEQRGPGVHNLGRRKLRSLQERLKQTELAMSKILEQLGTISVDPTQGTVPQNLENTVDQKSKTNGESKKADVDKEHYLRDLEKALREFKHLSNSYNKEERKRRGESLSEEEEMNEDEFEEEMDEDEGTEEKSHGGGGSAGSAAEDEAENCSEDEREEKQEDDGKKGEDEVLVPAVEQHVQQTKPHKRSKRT", "assay": "cell-based", "type": "cell-based, A. suum", "details": "read-out: current response normalized to the control 100 μM ACh current"}, "[4]": {"biological_target": "T2, Cel-EAT-2 + Asu-EAT-18 + Asu-RIC-3 (Caenorhabditis elegans, UniProt Q9U298)"}, "[5]": {"biological_target": "T2, Cel-EAT-2 + Asu-EAT-18 + Asu-RIC-3", "assay": "cell-based"}},
  "data": [
    {"smiles": "CN1CCC[C@H]1c1cccnc1", "note": "[nicotine]", "values": [
      {"measurement": "EC50", "setting": "[1]", "result": 63.1, "unit": "µM"},
      {"measurement": "Hill slope (nH)", "setting": "[1]", "result": "2.4±0.4"},
      {"measurement": "Imax", "setting": "[1]", "result": "54.6 ± 2.6", "unit": "%"},
      {"measurement": "current response normalized to the control 100 μM ACh current (Imax)", "setting": "[1]", "result": "55 ± 8.0", "unit": "%"},
      {"measurement": "Emax at 100 µM", "setting": "[1]; read-out: current response normalized to the control 100 μM ACh current (Imax)", "result": "55 ± 8", "unit": "%"},
      {"measurement": "Hill slope (nH)", "setting": "[2]", "result": "1.7±0.6"},
      {"measurement": "maximal response", "setting": "[2]", "result": "79.3 ± 4.3", "unit": "μS"},
      {"measurement": "Emax", "setting": "[2]; Ascaris suum, read-out: % change in membrane conductance (δG) normalized to the ACh δG", "result": "92 ± 6.2", "unit": "%"},
      {"measurement": "EC50", "setting": "[2]; Ascaris suum, read-out: pEC50 (converted)", "result": 10, "unit": "µM"},
      {"measurement": "Emax", "setting": "[3]", "result": "105 ± 5.7", "unit": "%"},
      {"measurement": "Imax", "setting": "[4]", "result": "96.5 ± 2.3", "unit": "%"},
      {"measurement": "EC50", "setting": "[5]", "result": 18.7, "unit": "µM"}
    ]}
  ]
}
